Experimental data taken from US8399676B2, “Piperidine derivatives” (Hoffman-La Roche Inc., priority 2009, dated 2013).
pIC50: −log10 of the molar value. Structures can show the parent of a compound that is named as a salt.

Target: T1, human HSL (Homo sapiens, UniProt Q05469)
T1 construct: generate a full length human HSL ORF with a 3′-His6 tag; His6 (C); made in house; host or cells: High 5 insect cells (baculovirus, pFast-BAC)
T1 sequence (Q05469 1-1076): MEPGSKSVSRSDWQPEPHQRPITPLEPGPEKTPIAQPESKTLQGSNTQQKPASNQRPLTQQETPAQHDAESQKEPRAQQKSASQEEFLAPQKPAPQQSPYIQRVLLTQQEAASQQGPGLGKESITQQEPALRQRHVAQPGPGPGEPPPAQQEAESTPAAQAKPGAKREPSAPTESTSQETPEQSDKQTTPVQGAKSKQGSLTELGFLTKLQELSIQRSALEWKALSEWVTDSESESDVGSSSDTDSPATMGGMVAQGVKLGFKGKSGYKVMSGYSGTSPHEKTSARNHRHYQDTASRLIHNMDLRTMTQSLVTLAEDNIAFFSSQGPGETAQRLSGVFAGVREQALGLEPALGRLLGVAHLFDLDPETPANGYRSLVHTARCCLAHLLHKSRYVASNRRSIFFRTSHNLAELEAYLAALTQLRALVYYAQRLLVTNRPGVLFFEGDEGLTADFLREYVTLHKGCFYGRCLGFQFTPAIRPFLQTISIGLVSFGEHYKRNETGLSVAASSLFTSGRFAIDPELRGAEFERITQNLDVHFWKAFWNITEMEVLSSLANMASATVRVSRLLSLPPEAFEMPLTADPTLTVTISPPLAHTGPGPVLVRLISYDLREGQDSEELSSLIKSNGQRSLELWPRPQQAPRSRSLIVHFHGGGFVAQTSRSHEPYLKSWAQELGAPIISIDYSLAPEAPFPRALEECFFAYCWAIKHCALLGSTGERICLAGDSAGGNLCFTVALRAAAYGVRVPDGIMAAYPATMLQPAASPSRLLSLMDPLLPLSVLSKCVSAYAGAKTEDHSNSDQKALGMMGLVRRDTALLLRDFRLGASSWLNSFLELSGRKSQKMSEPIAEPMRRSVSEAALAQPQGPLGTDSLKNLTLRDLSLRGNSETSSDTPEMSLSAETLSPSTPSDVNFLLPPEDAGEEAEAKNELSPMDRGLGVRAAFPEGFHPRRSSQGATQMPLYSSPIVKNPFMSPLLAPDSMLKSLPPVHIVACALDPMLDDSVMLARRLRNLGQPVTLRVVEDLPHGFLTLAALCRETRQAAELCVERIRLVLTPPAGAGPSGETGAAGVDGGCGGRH
Assay: Human Hormone-Sensitive Lipase (HSL) enzyme inhibition assay (colorimetric, DMPT substrate)
Assay type: biochemical
Settings: read-out: HSL hum IC50
Procedure: Production of Human Full Length Hormone Sensitive Lipase-His^6
1) Cloning: cDNA was prepared from commercial human brain polyA+ RNA and used as a template in overlapping PCR to generate a full length human HSL ORF with a 3′-His6 tag. This full length insert was cloned into the pFast-BAC vector and the DNA-sequence of several single clones was verified. DNA from a correct full length clone with the 3′His6 tag was used to transform the E. coli strain DH10BAC. Resulting bacmid DNA was used to generate a titered baculovirus stock for protein generation. The sequence of the encoded HSL conforms to Swissprot entry Q05469, with the additional C-terminal His6-tag.
2) Protein purification: Culture: 5.5 L, High 5 cells expressing human full length HSL-His^6, 48 hr., containing 25 μM E-64. Cell count: […], 90% viable.
Cells were thawed. On ice, cells were suspended in Base Buffer containing 10% glycerol, 25 mM Tris-Cl, 300 mM NaCl, 10 mM imidazole, 10 mM 2-mercaptoethanol, 2 μg pepstatin/ml, 2 μg leupeptin/ml, 2 μg antipain/ml, pH 8.0 at 4° C. in a final volume of 475 ml with 3.75×10^7 cells/ml. […] was done at 3×30 sec., Lubrol PX was added to 0.2% final concentration followed by stirring for 15 min. at 4° C. and centrifugation at 25 k×g, 60 min., 4° C. Soluble proteins were mixed with 60 ml of pre-washed and equilibrated Ni-NTA Agarose (Qiagen 30210) followed by tumbling end-over-end, 45 min., 4° C., centrifugation 1000 rpm 5 min and letting resin settle 5 min. Supernatant was removed, the resin washed in the centrifuge vessel using 5 volumes of Base Buffer containing 0.2% Lubrol PX. Centrifugation was done again, then the supernatant discarded. The resin was poured onto a 0.8 μm membrane in a disposable filter unit (Nalge 450-0080), and washed with 5 volumes of Base Buffer containing 0.2% Lubrol PX. It was then washed with 30 volumes of Base Buffer containing 60 mM imidazole pH 7.5 at 4° C. The protein was eluted with 5 volumes of 25 mM Tris-Cl, 300 mM NaCl, 200 mM imidazole, 10 mM 2-mercaptoethanol, pH 7.5 at 4° C. by tumbling resin with buffer end-over-end, 30 min., 4° C. The resin was captured on a 0.2 μm membrane disposable filter unit (Millipore SCGP U02 RE) and the elute collected in the reservoir. The elute was concentrated using a 30 k MWCO centrifugal filter device (Sartorius Vivascience Vivacell 100, VC1022), to 20 ml. It was then dialyzed overnight at 4° C., two times against 2 L of 10% glycerol, 25 mM Tris-Cl, 300 mM NaCl, 0.2 mM EDTA, 0.2 mM DTT, pH 7.5 at 4° C. The protein was filtered using a 0.22 μm disposable filter unit (Millipore SCGP00525). The protein concentration was calculated from absorbance at 280 nm, using 280=0.67 cm-1 mg-1. Yield was 235 mg, total. The protein was stored at −80° C. Human Hormone-Sensitive Lipase (HSL) enzyme inhibition assay:
HSL enzyme activity was measured by a colorimetric assay using 2,3-dimercapto-1-propanol tributyrate (Aldrich, St. Louis, Mo.) as a substrate. Typically, 1.5 mM 2,3-dimercapto-1-propanol tributyrate (DMPT) in 100 mM MOPS, pH 7.2, 0.2 mg/ml fatty acid-free BSA was prepared by sonication at 4° C. to homogenous suspension. Test compounds (2 mM stock in DMSO) were diluted 3 fold in series in DMSO. Compound solutions were diluted 24 fold in 1.5 mM DMPT containing solution and 18 ul per well was added to 384-well microplates (Corning Costar). Twelve microliters per well of human HSL (15 ug/ml) was added and the reaction mixture was incubated at 37° C. for 20 minutes. Six microliters of 12 mM dithio-bis-(2-nitrobenzoic acid) (DTNB) in DMSO plus 1.2% SDS and 0.6% Triton X-100 were added and the mixture was incubated at room temperature for 15 minutes. Product production was monitored by reading absorbance at 405 nm on an Envision Reader (PerkinElmer Life and Analytical Sciences, Shelton, Conn.).

First: CC(C)(C)c1ccc(NC(=O)C2(O)CCN(Cc3ccccc3C(F)(F)F)CC2)cc1 [Example 47, 4-Hydroxy-1-(2-trifluoromethyl-benzyl)-piperidine-4-carboxylic acid (4-tert-butyl-phenyl)-amide]
Second: CC(C)(C)c1ccc(NC(=O)C2(O)CCN(Cc3ccccc3F)CC2)cc1 [Example 45, 1-(2-Fluoro-benzyl)-4-hydroxy-piperidine-4-carboxylic acid (4-tert-butyl-phenyl)-amide]
The pIC50 of the first is 0.46 log units lower: 6.64 for the first, 7.10 for the second.

First: CCc1ccc(NC(=O)C2(N)CCN(Cc3ccccc3)CC2)cc1 [Example 151, 4-Amino-1-benzyl-piperidine-4-carboxylic acid (4-ethyl-phenyl)-amide]
Second: CC(C)c1ccc(NC(=O)C2(N)CCN(Cc3ccccc3)CC2)cc1 [Example 122, 4-Amino-1-benzyl-piperidine-4-carboxylic acid (4-isopropyl-phenyl)-amide]
The pIC50 of the first is 0.62 log units lower: 6.27 for the first, 6.89 for the second.

Compared with `CN(C(=O)C1(O)CCN(Cc2ccccc2F)CC1)c1ccc(OC(F)(F)F)cc1` [Example 67, 1-(2-Fluoro-benzyl)-4-hydroxy-piperidine-4-carboxylic acid methyl-(4-trifluoromethoxy-phenyl)-amide], `CCN(C(=O)C1(O)CCN(S(=O)(=O)c2ccccc2F)CC1)c1ccc(OC(F)(F)F)cc1` [Example 75, 1-(2-Fluoro-benzenesulfonyl)-4-hydroxy-piperidine-4-carboxylic acid ethyl-(4-trifluoromethoxy-phenyl)-amide] is 0.60 log units lower in pIC50: 6.72 for the first, 6.12 for the second.

`CC(C)c1ccc(NC(=O)C2(N)CCN(C(=O)Nc3ccc(Cl)cc3)CC2)cc1` [Example 108, 4-Amino-piperidine-1,4-dicarboxylic acid 1-[(4-chloro-phenyl)-amide] 4-[(4-isopropyl-phenyl)-amide]; hydrochloride] and `CC(C)c1ccc(NC(=O)C2(N)CCN(C(=O)Nc3ccc(OC(F)(F)F)cc3)CC2)cc1` [Example 85, 4-Amino-piperidine-1,4-dicarboxylic acid 4-[(4-isopropyl-phenyl)-amide]1-[(4-trifluoromethoxy-phenyl)-amide]; hydrochloride] are within 0.2 log units of each other in pIC50: 7.00 for the first, 6.92 for the second.

First: CC(C)(C)c1ccc(NC(=O)C2(O)CCN(C(=O)c3ccc(F)cc3)CC2)cc1 [Example 18, 1-(4-Fluoro-benzoyl)-4-hydroxy-piperidine-4-carboxylic acid (4-tert-butyl-phenyl)-amide]
Second: CC(C)(C)c1ccc(NC(=O)C2(O)CCN(C(=O)c3ccc(F)cc3F)CC2)cc1 [Example 41, 1-(2,4-Difluoro-benzoyl)-4-hydroxy-piperidine-4-carboxylic acid (4-tert-butyl-phenyl)-amide]
The pIC50 of the first is 0.37 log units higher: 6.68 for the first, 6.31 for the second. The first is the more potent here.

First: O=C(Nc1ccc(OC(F)(F)F)cc1)C1(O)CCN(S(=O)(=O)c2ccccc2C(F)(F)F)CC1 [Example 64, 4-Hydroxy-1-(2-trifluoromethyl-benzenesulfonyl)-piperidine-4-carboxylic acid (4-trifluoromethoxy-phenyl)-amide]
Second: O=C(c1ccccc1Cl)N1CCC(O)(C(=O)Nc2ccc(OC(F)(F)F)cc2)CC1 [Example 56, 1-(2-Chloro-benzoyl)-4-hydroxy-piperidine-4-carboxylic acid (4-trifluoromethoxy-phenyl)-amide]
The pIC50 of the first is 0.48 log units higher: 6.82 for the first, 6.34 for the second.

`CC(C)c1ccc(CN2CCC(N)(C(=O)Nc3ccc(C(C)C)cc3)CC2)cc1` [Example 115, 4-Amino-1-(4-isopropyl-benzyl)-piperidine-4-carboxylic acid (4-isopropyl-phenyl)-amide; hydrochloride] and `CC(C)c1ccc(NC(=O)C2(O)CCN(Cc3ccc(F)cc3)CC2)cc1` [Example 2, 1-(4-Fluoro-benzyl)-4-hydroxy-piperidine-4-carboxylic acid (4-isopropyl-phenyl)-amide] are within 0.2 log units of each other in pIC50: 6.64 for the first, 6.57 for the second.

First: CCc1ccc(NC(=O)C2(N)CCN(S(=O)(=O)c3c(Cl)cccc3Cl)CC2)cc1 [Example 150, 4-Amino-1-(2,6-dichloro-benzenesulfonyl)-piperidine-4-carboxylic acid (4-ethyl-phenyl)-amide]
Second: CCc1ccc(NC(=O)C2(N)CCN(S(=O)(=O)c3ccc(F)cc3Cl)CC2)cc1 [Example 146, 4-Amino-1-(2-chloro-4-fluoro-benzenesulfonyl)-piperidine-4-carboxylic acid (4-ethyl-phenyl)-amide]
The pIC50 of the first is 0.30 log units lower: 6.62 for the first, 6.92 for the second. The second is the more potent here.

First: CC(C)c1ccc(NC(=O)C2(O)CCN(S(=O)(=O)c3ccccc3Cl)CC2)cc1 [Example 7, 1-(2-Chloro-benzenesulfonyl)-4-hydroxy-piperidine-4-carboxylic acid (4-isopropyl-phenyl)-amide]
Second: CC(C)c1ccc(NC(=O)C2(N)CCN(C(=O)OCc3ccccc3)CC2)cc1 [Example 82, 4-Amino-4-(4-isopropyl-phenylcarbamoyl)-piperidine-1-carboxylic acid benzyl ester; hydrochloride]
The pIC50 of the first is 0.56 log units higher: 7.05 for the first, 6.49 for the second.

Compared with `CCc1ccc(NC(=O)C2(N)CCN(C(=O)OCc3ccccc3)CC2)cc1` [Example 132, 4-Amino-4-(4-ethyl-phenylcarbamoyl)-piperidine-1-carboxylic acid benzyl ester], `COc1ccc(Cl)cc1NC(=O)N1CCC(O)(C(=O)Nc2ccc(C(C)(C)C)cc2)CC1` [Example 50, 4-Hydroxy-piperidine-1,4-dicarboxylic acid 4-[(4-tert-butyl-phenyl)-amide] 1-[(5-chloro-2-methoxy-phenyl)-amide]] is 0.26 log units lower in pIC50: 6.34 for the first, 6.08 for the second.

For `Cc1ccc(S(=O)(=O)N2CCC(O)(C(=O)N(C)c3ccc(OC(F)(F)F)cc3)CC2)cc1` [Example 69, 4-Hydroxy-1-(toluene-4-sulfonyl)-piperidine-4-carboxylic acid methyl-(4-trifluoromethoxy-phenyl)-amide], the pIC50 was 6.85.
